According to ChEMBL document CHEMBL3885861, “Open TG-GATES”:

Species on record: Rattus norvegicus
Assay: Open TG-GATES - Regimen: Daily Repeat
Format: toxicity, organism-based, Sprague-Dawley
Design: regimen Daily Repeat, gender Male, age 6 weeks
Conditions: in vivo, po, 10 mg/kg, […], route gavage, dose level Low; for KIDNEY_L / KIDNEY_R / KIDNEY_TOTAL: tissue Kidney; for LIVER: tissue Liver; for A/G / ALP / ALT / AST / BUN / CRE / Ca / Cl / DBIL / GLC / IP / K / LDH / Na / PL / RALB / TBIL / TC / TG / TP / gamma-GTP: tissue Plasma

Compound `NC(=O)N/N=C/c1ccc([N+](=O)[O-])o1` [NITROFURAZONE] has a Lym (tissue Blood, time 28 day) of 76.4%, an MCH (tissue Blood, time 28 day) of 19.3 pg and an MCHC (tissue Blood, time 28 day) of 33.6%. The MCV (tissue Blood, time 28 day) was 57.6 fL, the Mono (tissue Blood, time 28 day) was 2.2% and the Neu (tissue Blood, time 28 day) was 19.4%. It also gave a PT (tissue Blood, time 28 day) of 14.8 s, a Plat (tissue Blood, time 28 day) of 94.4 x10_4/uL and an RBC (tissue Blood, time 28 day) of 761 x10_4/ul. The Ret (tissue Blood, time 28 day) was 3%, the WBC (tissue Blood, time 28 day) was 94.8 x10_2/uL and the KIDNEY_L (time 7 day) was 1.1 g. For the same compound, the KIDNEY_R (time 7 day) was 1.1 g, the KIDNEY_TOTAL (time 7 day) was 2.2 g and the KIDNEY_L (time 14 day) was 1.3 g. For the same compound, the KIDNEY_R (time 14 day) was 1.2 g, the KIDNEY_TOTAL (time 14 day) was 2.5 g and the KIDNEY_L (time 28 day) was 1.5 g. The KIDNEY_R (time 28 day) was 1.5 g, the KIDNEY_TOTAL (time 28 day) was 3.1 g and the LIVER (time 7 day) was 12.9 g. The LIVER (time 14 day) was 15.3 g, the LIVER (time 28 day) was 18.6 g and the A/G (time 7 day) was 0.9. The ALP (time 7 day) was 1835.8 IU/L, the ALT (time 7 day) was 44.6 IU/L and the AST (time 7 day) was 70.8 IU/L. The BUN (time 7 day) was 15.6 mg/dL, the CRE (time 7 day) was 0.2 mg/dL and the Ca (time 7 day) was 11.1 mg/dL. It also gave a Cl (time 7 day) of 104 meq/L, a DBIL (time 7 day) of 0.016 mg/dL and a GLC (time 7 day) of 184 mg/dL. It also gave an IP (time 7 day) of 7.7 mg/dL, a K (time 7 day) of 3.7 meq/L and an LDH (time 7 day) of 67 IU/L. It also gave a Na (time 7 day) of 141.4 meq/L, a PL (time 7 day) of 156.4 mg/dL and an RALB (time 7 day) of 2.6 g/dL. For the same compound, the TBIL (time 7 day) was 0.05 mg/dL, the TC (time 7 day) was 83.4 mg/dL and the TG (time 7 day) was 102 mg/dL. It also gave a TP (time 7 day) of 5.6 g/dL, a gamma-GTP (time 7 day) of 1 IU/L and an A/G (time 14 day) of 0.8. For the same compound, the ALP (time 14 day) was 1653.4 IU/L, the ALT (time 14 day) was 47.4 IU/L and the AST (time 14 day) was 83.6 IU/L. For the same compound, the BUN (time 14 day) was 17.8 mg/dL, the CRE (time 14 day) was 0.2 mg/dL and the Ca (time 14 day) was 10.9 mg/dL. It also gave a Cl (time 14 day) of 105 meq/L, a DBIL (time 14 day) of 0.014 mg/dL and a GLC (time 14 day) of 185.8 mg/dL. It also gave an IP (time 14 day) of 7.3 mg/dL, a K (time 14 day) of 4.1 meq/L and an LDH (time 14 day) of 92.4 IU/L. For the same compound, the Na (time 14 day) was 142.4 meq/L, the PL (time 14 day) was 156.2 mg/dL and the RALB (time 14 day) was 2.7 g/dL. It also gave a TBIL (time 14 day) of 0.044 mg/dL, a TC (time 14 day) of 77.8 mg/dL and a TG (time 14 day) of 123.8 mg/dL. For the same compound, the TP (time 14 day) was 5.8 g/dL, the gamma-GTP (time 14 day) was 1.4 IU/L and the A/G (time 28 day) was 0.8. The ALP (time 28 day) was 1381.2 IU/L, the ALT (time 28 day) was 39.4 IU/L and the AST (time 28 day) was 64 IU/L. For the same compound, the BUN (time 28 day) was 17.4 mg/dL, the CRE (time 28 day) was 0.2 mg/dL and the Ca (time 28 day) was 10.8 mg/dL. The Cl (time 28 day) was 103.6 meq/L, the DBIL (time 28 day) was 0.014 mg/dL and the GLC (time 28 day) was 187.2 mg/dL. It also gave an IP (time 28 day) of 6.6 mg/dL, a K (time 28 day) of 3.6 meq/L and an LDH (time 28 day) of 47.8 IU/L. For the same compound, the Na (time 28 day) was 143 meq/L, the PL (time 28 day) was 154.2 mg/dL and the RALB (time 28 day) was 2.7 g/dL. The TBIL (time 28 day) was 0.062 mg/dL, the TC (time 28 day) was 78 mg/dL and the TG (time 28 day) was 133.6 mg/dL. The TP (time 28 day) was 6.2 g/dL and the gamma-GTP (time 28 day) was 1 IU/L.
